In patent publication US20260048051A1, “TREATMENT OF INFLAMMATORY BOWEL DISEASE” (Atomwise Inc., priority 2024, published 2026):

Target: T1, TYK2-JH2 (Homo sapiens, UniProt P29597)
T1 construct: TYK JH2 enzyme mix (ChemPartner: CP20210818A-BV); purchased ChemPartner CP20210818A-BV
Assay: TYK2-JH2 HTRF binding assay (ligand efficiency)
Details: calculated from binding-assay IC50 (Equation 1)
Method: The following example describes the TYK2-JH2 HTRF binding assay used to determine the ligand efficiency of the TYK2 inhibitors.
To calculate ligand efficiency, Equation 1 is applied: […]
in which IC50 comes from the binding assay used to determine compound potency.
TYK JH2 enzyme mix (ChemPartner: CP20210818A-BV), tracer (ChemPartner: CP-0029472-051) and mAb Anti-6HIS Tb cryptate Gold (Cisbio: Cat No. 61HI2TLA) mix were prepared in assay buffer (10 mM MgCl2, 20 mM HEPES pH 7.5, 0.01% Triton X-100, 1 mM DTT). Compounds diluted in DMSO (Final Concentrations 0.1 to 0.000005 [μM]) and enzyme mix (0.5 nM Final Concentration) were added to 384 well plates, briefly centrifuged and incubated at room temperature for 10 minutes. After incubation, tracer mix (Tracer-35 nM final concentration); (MAb Anti-6HIS Tb cryptate Gold-0.5× final)) was added, briefly centrifuged then incubate at room temperature 60 minutes. After incubation, plates were read by Envision TR-FRET (Ex340/Em495/520) protocol (PerkinElmer-Envision 2104 multilabel plate reader).

T1 sequence (P29597 589-875 limits assumed): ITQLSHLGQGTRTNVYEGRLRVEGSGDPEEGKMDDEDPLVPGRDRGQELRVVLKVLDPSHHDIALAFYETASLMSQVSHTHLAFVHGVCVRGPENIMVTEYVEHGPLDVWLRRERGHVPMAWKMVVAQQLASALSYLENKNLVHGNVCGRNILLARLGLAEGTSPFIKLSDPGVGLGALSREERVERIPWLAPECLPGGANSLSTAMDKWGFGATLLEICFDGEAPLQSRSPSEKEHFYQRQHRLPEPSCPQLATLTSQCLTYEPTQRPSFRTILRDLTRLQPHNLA

| Compound | Ligand Efficiency |
| --- | --- |
| C[C@@H](c1ccc(Nc2cc(Nc3ncccc3S(C)(=O)=O)ncn2)nc1)N1CC2(CCOC2)C1 [Compound 32, (S)—N^4-(5-(1-(6-oxa-2-azaspiro[3.4]octan-2-yl)ethyl)pyridin-2-yl)-N^6-(3-(methylsulfonyl)pyridin-2-yl)pyrimidine-4,6-diamine] | ††† (†††: >0.39) |
| C[C@H]1COCCN1c1ccc(Nc2cc(Nc3ccccc3S(C)(=O)=O)ncn2)nc1 [Compound 54, (S)—N^4-(5-(3-methylmorpholino)pyridin-2-yl)-N^6-(2-(methylsulfonyl)phenyl)pyrimidine-4,6-diamine] | † (†: < 0.37) |
| CS(=O)(=O)c1cccnc1Nc1cc(Nc2ccc([C@@H](N3CC4(COC4)C3)C(F)(F)F)cn2)ncn1 [Compound 16, (R)—N^4-(3-(methylsulfonyl)pyridin-2-yl)-N^6-(5-(2,2,2-trifluoro-1-(2-oxa-6-azaspiro[3.3]heptan-6-yl)ethyl)pyridin-2-yl)pyrimidine-4,6-diamine] | †† (††: 0.37-0.39) |
| Cc1cccc(Nc2cc(Nc3cccnc3S(C)(=O)=O)ncn2)n1 [Compound 59, N^4-(6-methylpyridin-2-yl)-N^6-(2-(methylsulfonyl)pyridin-3-yl) pyrimidine-4,6-diamine] | ††† (†††: >0.39) |
| COc1ccc(Nc2cc(NC(=O)C3CC3)ncn2)c(C(N)=O)c1 [Compound 70, 2-((6-(cyclopropanecarboxamido)pyrimidin-4-yl)amino)-5-methoxy benzamide] | ††† (†††: >0.39) |
| CS(=O)(=O)c1cccnc1Nc1cc(Nc2ccc(N3CCC4(CCO4)CC3)cn2)ncn1 [Compound 24, N^4-(5-(1-oxa-7-azaspiro[3.5]nonan-7-yl)pyridin-2-yl)-N^6-(3-(methylsulfonyl)pyridin-2-yl)pyrimidine-4,6-diamine] | †† (††: 0.37-0.39) |
| Cc1ccnc(Nc2cc(Nc3ccccc3C(N)=O)ncn2)n1 [Compound 58, 2-(6-(4-methylpyrimidin-2-ylamino)pyrimidin-4-ylamino)benzamide] | ††† (†††: >0.39) |
| C[C@@H](c1ccc(Nc2cc(Nc3ncccc3S(C)(=O)=O)ncn2)nc1)N1C[C@H]2COC[C@H]2C1 [Compound 25, N^4-(3-(methylsulfonyl)pyridin-2-yl)-N^6-(5-(1-((3aR,6aS)-tetrahydro-1H-furo[3,4-c]pyrrol-5(3H)-yl)ethyl)pyridin-2-yl)pyrimidine-4,6-diamine] | ††† (†††: >0.39) |
| Cc1cccc(Nc2cc(Nc3ccccc3NS(C)(=O)=O)ncn2)n1 [Compound 53, N-(2-(6-(6-methylpyridin-2-ylamino)pyrimidin-4-ylamino)phenyl) methanesulfonamide] | ††† (†††: >0.39) |
| COc1cnc(Nc2cc(Nc3ccc([C@H](C)N4CC5(COC5)C4)cn3)ncn2)c(S(C)(=O)=O)c1 [Compound 3, (S)—N^4-(5-(1-(2-oxa-6-azaspiro[3.3]heptan-6-yl)ethyl)pyridine-2-yl)-N^6-(5-methoxy-3-(methylsulfonyl)pyridin-2-yl)pyrimidine-4,6-diamine] | †† (††: 0.37-0.39) |
| Cc1cccc(Nc2cc(Nc3cccnc3C(N)=O)ncn2)n1 [Compound 50, 3-((6-((6-methylpyridin-2-yl)amino)pyrimidin-4-yl)amino) picolinamide] | ††† (†††: >0.39) |
| Cc1cccc(Nc2cc(Nc3ccccc3C(N)=O)ncn2)n1 [Compound 46] | ††† (†††: >0.39) |
| CC(c1ccc(Nc2cc(Nc3ncccc3S(C)(=O)=O)ncn2)nc1)N1CC2(CC(F)C2)C1 (stereo in doubt) [Compound 10, N^4-(5-((1R)-1-(6-fluoro-2-azaspiro[3.3]heptan-2-yl)ethyl)pyridin-2-yl)-N^6-(3-(methylsulfonyl)pyridin-2-yl)pyrimidine-4,6-diamine] | ††† (†††: >0.39) |
| CS(=O)(=O)c1cccnc1Nc1cc(Nc2ncccc2F)ncn1 [Compound 64, N^4-(3-fluoropyridin-2-yl)-N^6-(3-(methylsulfonyl)pyridin-2-yl) pyrimidine-4,6-diamine] | ††† (†††: >0.39) |
| CS(=O)(=O)c1ccccc1Nc1cc(Nc2ccc(C(=O)NC3COC3)cn2)ncn1 [Compound 79, 6-((6-((2-(methylsulfonyl)phenyl)amino)pyrimidin-4-yl)amino)-N-(oxetan-3-yl)nicotinamide] | †† (††: 0.37-0.39) |
| Cc1cnnc(Nc2cc(Nc3ccccc3C(N)=O)ncn2)c1 [Compound 47, 2-((6-((5-methylpyridazin-3-yl)amino)pyrimidin-4-yl)amino) benzamide] | ††† (†††: >0.39) |
| CC(NC1CC(F)(F)C1)c1ccc(Nc2cc(Nc3ncccc3S(C)(=O)=O)ncn2)nc1 (centres unmarked) [Compound 35, N^4-(5-(1-(3,3-difluorocyclobutylamino)ethyl)pyridin-2-yl)-N^6-(3-(methylsulfonyl)pyridin-2-yl)pyrimidine-4,6-diamine] | ††† (†††: >0.39) |
| COc1ccnc(Nc2cc(Nc3cccc(C)n3)ncn2)c1S(C)(=O)=O [Compound 65, N^4-(4-methoxy-3-(methylsulfonyl)pyridin-2-yl)-N^6-(6-methylpyridin-2-yl)pyrimidine-4,6-diamine] | ††† (†††: >0.39) |
| Cc1ccnc(Nc2cc(Nc3ccccc3P(C)(C)=O)ncn2)c1 [Compound 63, N^4-(2-(dimethylphosphoryl)phenyl)-N^6-(4-methylpyridin-2-yl) pyrimidine-4,6-diamine] | ††† (†††: >0.39) |
| CC1(Nc2cnc(Nc3cc(Nc4ncccc4S(C)(=O)=O)ncn3)cn2)COC1 [Compound 74, N^4-(5-(3-methyloxetan-3-ylamino)pyrazin-2-yl)-N^6-(3-(methylsulfonyl)pyridin-2-yl)pyrimidine-4,6-diamine] | ††† (†††: >0.39) |
| CS(=O)(=O)c1cccnc1Nc1cc(Nc2cccc(C(F)(F)F)n2)ncn1 [Compound 19, N^4-(3-(methylsulfonyl)pyridin-2-yl)-N^6-(6-(trifluoromethyl)pyridin-2-yl)pyrimidine-4,6-diamine] | ††† (†††: >0.39) |
| CC(NC1COC1)c1ccc(Nc2cc(Nc3ccccc3S(C)(=O)=O)ncn2)nc1 (stereo in doubt) [Compound 40, (R)—N^4-(2-(methylsulfonyl)phenyl)-N^6-(5-(1-(oxetan-3-ylamino)ethyl)pyridin-2-yl)pyrimidine-4,6-diamine] | ††† (†††: >0.39) |
| Cn1ccc(Nc2cc(Nc3ccccc3C(N)=O)ncn2)n1 [Compound 67, 2-((6-((1-methyl-1H-pyrazol-3-yl)amino)pyrimidin-4-yl)amino)benzamide] | ††† (†††: >0.39) |
